Results: patent US11161819B2, “Substituted tetrahydroisoquinoline compounds useful as GPR120 agonists” (Merck Sharp & Dohme Corp., priority 2016, dated 2021)

Molecular target: T1, human GPR120 (Homo sapiens, UniProt Q5NUL3)
T1 construct: expressed in transfected cells
T1 sequence (Q5NUL3 1-361): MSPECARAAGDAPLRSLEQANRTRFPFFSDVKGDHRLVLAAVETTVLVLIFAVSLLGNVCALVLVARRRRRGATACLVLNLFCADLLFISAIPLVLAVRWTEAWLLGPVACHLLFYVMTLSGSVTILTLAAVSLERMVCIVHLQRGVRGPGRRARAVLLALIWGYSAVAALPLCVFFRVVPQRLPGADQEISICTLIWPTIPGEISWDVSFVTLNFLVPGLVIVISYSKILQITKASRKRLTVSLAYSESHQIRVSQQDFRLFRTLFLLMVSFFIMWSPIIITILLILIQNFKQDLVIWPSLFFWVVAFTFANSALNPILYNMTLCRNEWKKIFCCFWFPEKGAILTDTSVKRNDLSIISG
Assay: Human GPR120 IP1 Assay (inositol phosphate turnover, CisBio IP-One kit)
Assay type: cell-based
Conditions: IP1 accumulation in CHO-K1 cells stably expressing the short form of human GPR120; 60 min compound incubation; 4-parameter fit; read-out: hGPR120 EC50
Excerpt: Human GPR120 IP1 Assay Principle
The binding of small molecule agonists to the G-protein-coupled receptor GPR120 activates phospholipase C, and leads to the generation of inositol 1,4,5-trisphosphate (InsP3 or IP3). IP3 is subsequently de-phosphorylated to IP1, which accumulates in cells and is stable in the presence of lithium chloride.
In the present method, agonist-induced activation of the human GPR120 receptor was monitored by measuring the accumulation of IP1 in CHO-K1 cells that were stably expressing the short form of human GPR120 (Accession #NM_001195755). Following agonist addition, GPR120 activation and subsequent accumulation of IP1 was measured using a homogeneous Time Resolved Fluorescence-based ELISA commercially available from CisBio (IP-one ELISA Kit). The IP-One ELISA was a competitive immunoassay which uses IP1 labeled with […] and a terbium cryptate-labeled anti-IP1 monoclonal antibody. […] The signal loss was then back calculated to IP1 concentration using an IP1 standard curve. Determination of IP1 concentration was a direct measure of GPR120 activation and was used to determine compound potency (EC50).
Generation of GPR120-Expressing Cells:
Human GPR120 stable cell-lines were generated in CHO cells. The expression plasmids were transfected using lipofectamine (Life Technologies) following manufacturer's instructions. Stable cell-lines were generated following drug selection and single cell cloning.
Inositol Phosphate Turnover (IP1) Assay:
The assay was performed in 384-well format. CHO cells stably expressing human GPR120 were plated at […] per well in growth medium (DMEM/F12, 10% fetal calf serum). Cell plates were then incubated 16 hours at 37 degrees in a 5% CO2 incubator. Measurement of Inositol Phosphate Turnover (IP1) was performed using the CisBio IP-One kit (Part number 62IPAPEB). After the 16 hour incubation, the growth media was removed by centrifugation using the BlueWasher (AusWasher GUI Ver. v1.0.1.8) Protocol #21-“Light Dry” and 10 ul of stimulation buffer (prepared as described in the kit) was added to each well. In a separate plate, compounds were diluted in DMSO (200-fold over the final concentration in the assay well) and 50 nl was acoustically transferred to the appropriate well in the assay cell plate. The plates were then incubated for 60 minutes at 37 degrees in a 5% CO2 incubator. 10 ul of detection buffer (also prepared as described in the IP-One kit) was added to each well and the plates were incubated at room temperature for 60 minutes in the dark. The plates were then read in a Perkin Elmer EnVision or equivalent reader able to measure FRET. Fluorescent ratio of emission at 665 and 620 nm was then converted to the IP1 concentration by back calculating from an IP1 standard curve prepared at the time of the assay. The data was normalized to % activity using a reference compound, and the EC50 values were determined using a standard 4-parameter fit.

| Structure (SMILES) | EC50 [nM] |
| --- | --- |
| O=C(O)CCc1ccc2c(c1F)CCN(c1cccc(C3CC3)n1)C2 [Example 154, 3-[2-(6-cyclopropylpyridin-2-yl)-5-fluoro-1,2,3,4-tetrahydroiso-quinolin-6-yl]propanoic acid] | 167 |
| COc1cc(OC2CCC2)nc(N2CCc3c(ccc(CCC(=O)O)c3F)C2)c1F [Example 148, 3-(2-(6-cyclobutoxy-3-fluoro-4-methoxypyridin-2-yl)-5-fluoro-1,2,3,4-tetra-hydroisoquinolin-6-yl)propanoic acid] | 9 |
| O=C(O)CCc1ccc2c(c1)CCN(c1cccc(SC3CCC3)n1)C2 [Example 38, 3-{2-[6-(cyclobutylsulfanyl)pyridin-2-yl]-1,2,3,4-tetrahydroiso-quinolin-6-yl}propanoic acid] | 405 |
| O=C(O)CCc1ccc2c(c1F)CCN(c1cc(CC3CCC3)ccc1F)C2 [Example 23, 3-{2-[5-(cyclobutylmethyl)-2-fluorophenyl]-5-fluoro-1,2,3,4-tetrahydroisoquinolin-6-yl}propanoic acid] | 60 |
| COc1cc(C#N)c(N2CCc3cc(CCC(=O)O)ccc3C2)cc1OC1CCC1 [Example 42, 3-{2-[2-cyano-5-(cyclobutyloxy)-4-methoxyphenyl]-1,2,3,4-tetra-hydroisoquinolin-6-yl}propanoic acid] | 798 |
| O=C(O)CCc1ccc2c(c1)CCN(Cc1c(-c3ccc(Cl)cc3)nsc1C(F)(F)F)C2 [Example 50, 3-(2-{[3-(4-chlorophenyl)-5-(trifluoromethyl)isothiazol-4-yl]methyl}-1,2,3,4-tetrahydroiso-quinolin-6-yl)propanoic acid] | 348 |
| O=C(O)CCc1ccc2c(c1)CCN(c1cc(Oc3ccc(F)cn3)cc(C(F)F)c1F)C2 [Example 35, 3-(2-{3-(difluoromethyl)-2-fluoro-5-[(5-fluoropyridin-2-yl)oxy]phenyl}-1,2,3,4-tetrahydroisoquinolin-6-yl) propanoic acid] | 312 |
| Cc1ccc(-n2nc(C)c(C#N)c2N2CCc3cc(C(C)CCCC(=O)O)ccc3C2)cc1 (single isomer, unassigned) [Example 142, 5-{2-[4-cyano-3-methyl-1-(4-methylphenyl)-1H-pyrazol-5-yl]-1,2,3,4-tetra-hydroisoquinolin-6-yl}hexanoic acid] | 312 |
| CC1c2ccc(CCC(=O)O)cc2CCN1c1cc(OC2CCC2)ccc1F (centres unmarked) [Example 39, 3-{2-[5-(cyclobutyloxy)-2-fluorophenyl]-1-methyl-1,2,3,4-tetra-hydroisoquinolin-6-yl}propanoic acid] | 417 |
| O=C(O)CCc1ccc2c(c1F)CCN(c1cc(C(F)(F)C3CCC3)ccc1F)C2 [Example 56, 3-(2-(5-(cyclobutyldifluoromethyl)-2-fluorophenyl)-5-fluoro-1,2,3,4-tetrahydro-isoquinolin-6-yl)propanoic acid] | 40 |
| O=C(O)[C@H]1C[C@@H]1c1ccc2c(c1F)CCN(c1cc(OC(F)(F)F)cc(F)c1Cl)C2 [Example 124, (1S,2S)-2-{2-[2-chloro-3-fluoro-5-(trifluoromethoxy)phenyl]-5-fluoro-1,2,3,4-tetrahydro-isoquinolin-6-yl}cyclopropane-carboxylic acid] | 824 |
| O=C(O)CCc1ccc2c(c1F)CCN(c1cc(OC3CCC3)ccc1F)C2 [Example 81, 3-{2-[5-(cyclobutyloxy)-2-fluoro-phenyl]-5-fluoro-1,2,3,4-tetrahydro-isoquinolin-6-yl}propanoic acid] | 48 |

The remaining molecules from weak to strong by EC50, led by results:

| EC50 [nM] | Structure (SMILES) |
| --- | --- |
| 9740 | N#Cc1c(F)cc(OC2CCC2)cc1N1CCc2c(ccc([C@H]3C[C@@H]3C(=O)O)c2F)C1 [Example 126, (1S,2S)-2-{2-[2-cyano-5-(cyclo-butyloxy)-3-fluorophenyl]-5-fluoro-1,2,3,4-tetrahydroiso-quinolin-6-yl}cyclopropane-carboxylic acid] |
| 4040 | O=C(O)C1CC1c1ccc2c(c1)CCN(c1cc(OC(F)(F)F)cc(Cl)c1F)C2 (centres unmarked) [Example 104, 2-{2-[3-chloro-2-fluoro-5-(trifluoro-methoxy)phenyl]-1,2,3,4-tetra-hydroisoquinolin-6-yl}cyclo-propane-carboxylic acid] |
| 2360 | N#Cc1c(F)cc(OC(F)(F)F)cc1N1CCc2cc(CCC(=O)O)ccc2C1 [Example 44, 3-{2-[2-cyano-3-fluoro-5-(trifluoro-methoxy)phenyl]-1,2,3,4-tetra-hydroisoquinolin-6-yl}propanoic acid] |
| 1170 | O=C(O)CCc1ccc2c(c1Cl)CCN(c1cc(OC(F)(F)F)ccc1F)C2 [Example 72, 3-{5-chloro-2-[2-fluoro-5-(trifluoromethoxy)phenyl]-1,2,3,4-tetrahydroiso-quinolin-6-yl}propanoic acid] |
| 309 | Cc1ccc(-n2nc(C)c(Cl)c2N2CCc3c(ccc(CCC(=O)O)c3F)C2)cc1 [Example 146, 3-{2-[4-chloro-3-methyl-1-(4-methylphenyl)-1H-pyrazol-5-yl]-5-fluoro-1,2,3,4-tetrahydroisoquinolin-6-yl}propanoic acid] |
| 273 | N#Cc1c(F)cc(OC(F)(F)F)cc1N1CCc2c(ccc([C@H]3C[C@@H]3C(=O)O)c2F)C1 [Example 119, (1S,2S)-2-{2-[2-cyano-3-fluoro-5-(trifluoromethoxy)phenyl]-5-fluoro-1,2,3,4-tetrahydroisoquinolin-6-yl}cyclopropane-carboxylic acid] |
| 118 | O=C(O)C1CC1c1ccc2c(c1)CCN(c1cc(OC(F)(F)F)ccc1F)C2 (centres unmarked) [Example 102, 2-{2-[2-fluoro-5-(trifluoromethoxy)phnyl]-1,2,3,4-tetrahydroisoquinolin-6-yl}cyclopropane-carboxylic acid] |
| 110 | O=C(O)[C@H]1C[C@@H]1c1ccc2c(c1)CCN(c1cc(OC(F)(F)F)ccc1F)C2 [Example 88, (1S,2S)-2-{2-[2-fluoro-5-(trifluoro-methoxy)phenyl]-1,2,3,4-tetra hydroisoquinolin-6-yl}cyclo-propane carboxylic acid] |
| 74 | O=C(O)[C@@H]1C[C@H]1c1ccc2c(c1)CCN(c1cc(OC(F)(F)F)ccc1F)C2 [Example 87, (1R,2R)-2-{2-[2-fluoro-5-(trifluoro-methoxy)phenyl]-1,2,3,4-tetra hydroisoquinolin-6-yl}cyclo-propane carboxylic acid] |
| 61 | COc1cc(Cl)c(N2CCc3cc(CCC(=O)O)ccc3C2)cc1OC1CCC1 [Example 24, 3-{2-[2-chloro-5-(cyclobutyloxy)-4-methoxyphenyl]-1,2,3,4-tetrahydroisoquinolin-6-yl}propanoic acid] |
| 56 | Cc1ccc(-n2nc(C)c(Cl)c2N2CCc3cc(CCC(=O)O)ccc3C2)cc1 [Example 22, 3-{2-[4-chloro-3-methyl-1-(4-methylphenyl)-1H-pyrazol-5-yl]-1,2,3,4-tetrahydroisoquinolin-6-yl} propanoic acid] |
| 25 | N#Cc1c(F)cc(OC2CCC2)cc1N1CCc2cc(CCC(=O)O)ccc2C1 [Example 55, 3-{2-[2-cyano-5-(cyclobutyloxy)-3-fluorophenyl]-1,2,3,4-tetrahydro-isoquinolin-6-yl}propanoic acid] |
| 20 | Cc1cnc(Oc2cc(Cl)c(F)c(N3CCc4cc(CCC(=O)O)ccc4C3)c2)s1 [Example 9] |
| 3 | Cc1cnc(Oc2cc(Cl)c(F)c(N3CCc4c(ccc(CCC(=O)O)c4F)C3)c2)s1 [Example 62, 3-(2-{3-chloro-2-fluoro-5-[(5-methyl-1,3-thiazol-2-yl)oxy]phenyl}-5-fluoro-1,2,3,4-tetrahydroisoquinolin-6-yl)propanoic acid] |
